Results taken from patent US20220322656A1, “PRESERVATION OF ORGANS FOR TRANSPLANT AND NON-TRANSPLANT SURGERIES” (The Regents of the University of Michigan, priority 2019, published 2022).
“Also recorded” adds a separate entry of the source.

What was measured:
[1] = system: Il1; assay: Il1 protein level in donor heart after cold storage (western blot); design: species or system murine
Procedure: (§1) Experiments were conducted during development of embodiments herein to examine the effect of VPA on donor heart function with prolonged cold storage of donor heart. To address this, murine donor hearts were perfused with 7-8 mL HTK solution alone or HTK with 20 mM VPA and then stored the heart for 0, 4, and 8 hours.
(§2) Experiments were conducted during development of embodiments herein to determine whether pharmacological inhibition of MR signaling improves the heart function after prolonged cold storage period. To address this, murine donor hearts were perfused with 7-8 mL HTK solution alone or HTK with 25 μM spironolactone and then stored the heart for 0, 8 and 12 hours.

[2] = system: murine donor hearts; assay: Hemodynamics (max dp/dt, min dp/dt) of murine donor hearts after cold storage and ex-vivo reperfusion
Procedure: FIG. 5A-C. […] The max dp/dt (A) and min dp/dt (B) were calculated by averaging the max/min dp/dt in 20 minutes stable period after different cold storage periods followed by perfusion. The max dp/dt or −min dp/dt of hearts were normalized to percentage of time 0. **p<0.01. (C) VPA suppress the Ill and Myd88 protein level induced by cold storage.
FIG. 9A-C. […] Following spironolactone treatment, much improved (A) max dp/dt and (B) min dp/dt after prolonged storage after 8 hours and 12 hours was observed compared to HTK alone. N=4. **p<0.01, ***p<0.001 (C) Spironolactone suppress the Il1 and Myd88 protein level induced by cold storage.
as §1
Murine donor hearts were isolated and preserved in HTK solution for 0 h, 4 h and 8 h. The cardiac hemodynamics were then examined in an ex-vivo perfusion system. […] This was accompanied by increasing apoptotic cell death by TUNEL staining (FIG. 6C). Occurrence of cell death processes such as apoptosis with increasing storage duration is corroborated by Increased expression of cleaved poly (ADP-ribose) polymerase (PARP), a marker of cell death (FIG. 6D).
as §2

[3] = system: Myd88; assay: Myd88 protein level in donor heart after cold storage (western blot); design: species or system murine
Procedure: as §1, §2

[4] = system: human donor hearts; assay: RNA-Seq gene set enrichment analysis of human donor hearts during cold (4° C.) storage
Procedure: For treatment of human donor hearts, 6 grams of VPA was dissolved in 2 liters of HTK preservation solution and also used 2 liters of HTK solution as control. The solutions were then infused this through the aortic root of human donor hearts (n=3). RNA-Seq was performed to study the transcriptomic effect of VPA on the human heart during cold (4° C.) storage. Total RNA was isolated from the heart tissue stored at 0 h, 4 h and 8 h time points. Gene set enrichment analysis was then performed at different time points with or without VPA treatment.

[5] = system: donor hearts from C57BL/6J mice; assay: Reanimation of murine donor hearts on ex-vivo Langendorff apparatus after cold storage; settings: up to 5 hours of cold storage, vs HTK solution
Procedure: From murine heart experiments, donor hearts from C57BL/6J mice were preserved with either HTK solution or VPA+HTK solution and then stored in ice as per clinical protocols. The cold storage time was varied from 0 hour to 9 hours before reperfusing on an ex-vivo Langendorff apparatus.

[6] = system: pig hearts; assay: Ex-vivo isolated pig heart perfusion after 6 hours of ice storage in HTK with or without VPA; settings: 6 grams VPA in 2 liters HTK, 6 hours on ice
Procedure: FIG. 1. Coronary vascular resistance after two hours of ex-vivo pig heart perfusion. […] 6 grams of VPA was dissolved in 2 liters of heart preservation solution (histidine-tryptophan-ketoglutarate solution, HTK) and then infused this through the aortic root of freshly sacrificed pig hearts (n=3). For the control group (n=3) only HTK solution was infused. HTK solution is one of the standard donor heart preservation solutions used clinically for heart transplantation. The pig heart was then stored in ice after mechanical arrest with HTK solution as per standard transplant protocol for a total of 6 hours. After 6 hours, the hearts were retrieved and perfused with pig blood in an ex-vivo isolated heart perfusion model. The hearts were then examined for cardiac performance.

[7] = system: murine donor hearts; assay: Hemodynamics (max dp/dt, min dp/dt) of murine donor hearts after cold storage and ex-vivo reperfusion; remark: listed apart in the source
[8] = spironolactone, western blot, listed as spironolactone
[9] = HTK with 25 μM spironolactone vs HTK alone, after 8 h and 12 h of cold storage
[10] = HTK with 25 μM spironolactone vs HTK alone, after 8 h and 12 h of cold storage, listed as spironolactone
[11] = HTK with 20 mM VPA vs HTK alone, after 4 h and 8 h of cold storage
[12] = Alda-1 vs HTK alone, after 8 h of cold storage
[13] = canrenone vs HTK alone, after 8 hours of preservation
[14] = canrenone vs HTK alone, prolonged storage after 4 hours and 8 hours

SMILES: CC(=O)S[C@@H]1CC2=CC(=O)CC[C@]2(C)[C@H]2CC[C@@]3(C)[C@@H](CC[C@@]34CCC(=O)O4)[C@H]12 [Spironolactone, spironolactone]
- Il1 protein level ([1]; spironolactone, western blot): suppress
- Il1 protein level [1, 8]: significantly reduced
- max dp/dt (donor heart contractility) [2, 9]: much improved
- min dp/dt (donor heart relaxation) [2, 9]: much improved
- max dp/dt (donor heart contractility) [2, 10]: dramatically improved
- min dp/dt (donor heart relaxation) [2, 10]: dramatically improved
- Myd88 protein level ([3]; spironolactone, western blot): suppress
- Myd88 protein level [3, 8]: significantly reduced

SMILES: CCCC(CCC)C(=O)O [VPA, Valproic acid]
- Il1 protein level ([1]; HTK with 20 mM VPA): suppress; also recorded: reduced protein level
- NES, Inflammatory response ([4]; LV, VPA vs HTK Only): −1.47
- NES, Interferon gamma response ([4]; LV, VPA vs HTK Only): −1.65
- NES, TNFa signaling via NFkB ([4]; LV, VPA vs HTK Only): −1.68
- accumulation of genes related to inflammatory response ([4]; LV, during cold storage): significantly reduced
- NES, Inflammatory response ([4]; RV, VPA vs HTK Only): −1.32
- NES, P53 pathway ([4]; RV, VPA vs HTK Only): −1.25
- NES, TNFa signaling via NFkB ([4]; RV, VPA vs HTK Only): −1.96
- activation of p53 proapoptotic pathway ([4]; RV, during cold storage): reduced the activation
- expression of inflammatory response genes ([4]; RV, during cold storage): reduced expression
- cardiac reanimation [5]: successful and comparable for both groups
- fibrillatory arrest during ex-vivo perfusion ([6]; pig hearts (n=3), control 2 out of 3): None
- Coronary vascular resistance / coronary vascular tone ([6]; pig hearts, after two hours of ex-vivo perfusion, vs HTK control): improved; also recorded: trend toward better maintenance
- max dp/dt (donor heart contractility) [2, 11]: improves donor heart function; also recorded: dramatically improved
- min dp/dt (donor heart relaxation) [2, 11]: improves donor heart function; also recorded: dramatically improved
- Myd88 protein level ([3]; HTK with 20 mM VPA): suppress; also recorded: reduced protein level

SMILES: O=C(NCc1ccc2c(c1)OCO2)c1c(Cl)cccc1Cl [Alda-1, N-(1,3-benzodioxo1-5-ylmethyl)-2,6-dichlorobenzamide]
- max dp/dt (donor heart contractility) [7, 12]: dramatically improves; also recorded: improved
- min dp/dt (donor heart relaxation) [7, 12]: dramatically improves; also recorded: improved

SMILES: C[C@]12CCC(=O)C=C1C=C[C@@H]1[C@@H]2CC[C@@]2(C)[C@H]1CC[C@@]21CCC(=O)O1 [Canrenone, canrenone]
- max dp/dt (donor heart contraction) [7, 13]: significantly improves
- min dp/dt (donor heart relaxation) [7, 13]: significantly improves
- max dp/dt [7, 14]: much improved
- min dp/dt [7, 14]: much improved
